Source: paper PMC10712649 (Pharmacological research, 2023)
Converted amounts (≈) assume the structure as drawn.

Key:
primary myometrial cells = assay: Ca2+-mobilization assay, concentration-response; type: cell-based; details: Homo sapiens, read-out: Emax, Myometrial, inhibition of Ca2+-mobilization
[1] = test system: primary aortic vascular smooth muscle cells (VSMCs); assay: Ca2+-mobilization assay, concentration-response; type: cell-based, human
[2] = In vitro therapeutic index; details: smallest cell viability IC50 among the three cell types / Ca2+ assay IC50
mouse myometrial tissue = assay: Ex vivo isometric myometrial contractility organ bath assay; details: for Emax: read-out: Emax, inhibition of myometrial contractions; for IC50: read-out: IC50, inhibition of myometrial contractions
human myometrial tissue = assay: as above; details: read-out: Emax, inhibition of myometrial contractions
Solubility = type: physicochemical
MDCK permeability = type: in vitro ADME; details: dog
[3] = Human plasma protein binding; type: in vitro ADME
[4] = Intrinsic clearance in liver microsomes; type: in vitro ADME; details: mouse
[5] = Intrinsic clearance in liver microsomes; type: in vitro ADME; details: rat
[6] = Intrinsic clearance in liver microsomes; type: in vitro ADME; details: human
[7] = test system: mifepristone-induced mouse model of PTB; assay: In vivo therapeutic efficacy in mifepristone-induced mouse model of PTB
myometrial cells = assay: Combination high-throughput Ca2+-mobilization assay; details: for synergy in combination Ca2+-mobilization assay: 8 x 8 dose matrices, Combenefit
[8] = test system: mifepristone-induced mouse model of PTB; details: mifepristone 150 μg; prior study; cited from earlier work
CD-1 pregnant mice = assay: Minimal effective dose of mifepristone to induce PTB; type: in vivo, mouse; details: s.c. on day 15 of pregnancy

Row | Structure (SMILES) | Emax (primary myometrial cells) | TI (therapeutic index) [2] | Emax (mouse myometrial tissue) | IC50 (mouse myometrial tissue) | solubility (Solubility) | Papp (MDCK permeability) | fraction unbound [3] | microsomal CLint [4] | microsomal CLint [5] | microsomal CLint [6] | synergy in combination Ca2+-mobilization assay (myometrial cells) | fold enhancement in potency in combination (myometrial cells; in combination with nifedipine) | fold improvement of efficacy in combination vs single-agent (myometrial cells; in combination with nifedipine) | also measured
1 | COc1c(-c2coc3cc4c(cc3c2=O)CC(O)C(C)(C)O4)ccc2c1C=CC(C)(C)O2 (stereo not drawn) [Mundulone, mundulone] | 80.5% | 0.8 | 70% | 10 µM | 21 to 40 µM (≈ 9.12 to 17.4 µg/mL) | 494 nm/s | 0.007 | 47.1 µL/min/mg | 30.7 µL/min/mg | < 20 µL/min/mg | displayed synergism with atosiban and nifedipine | 2–3 fold | 6 fold | IC50, Fold difference ([1]; aorta VSMCs vs myometrial cells): 2; Emax (human myometrial tissue): 57%; timing of delivery ([7]; 30 μg mifepristone, 6.5, 13, or 26 mg/kg twice daily s.c., dose-dependently, p = 0.0457): delayed the timing of delivery; mortality ([7]; 26 mg/kg twice daily until the evening of day 17, 30 μg mifepristone): 100%; signs of impaired health or mortality in treated mice ([7]; single-agent, twice daily): did not show signs of impaired health or mortality until treated with 26 mg/kg twice daily for two days; fold improvement of efficacy in combination vs single-agent (myometrial cells; in combination with atosiban): 2 fold; fold improvement of potency in combination vs single-agent (myometrial cells; with either atosiban (FR 3.7:1) or nifedipine (FR 1:4.4)): 2–3 fold
2 | COc1c(-c2coc3cc4c(cc3c2=O)CC(OC(C)=O)C(C)(C)O4)ccc2c1C=CC(C)(C)O2 (stereo not drawn) [MA, mundulone acetate] | 44.5% | 8.8 | 27% | > 100 µM | 11 to 20 µM | 221 nm/s | 0.001 | 886 µL/min/mg | 586 µL/min/mg | 27.2 µL/min/mg | exhibited synergistic efficacy with only nifedipine | 2–3 fold | 6 fold | Emax, % difference ([1]; myometrial cells vs aorta VSMCs): 70%
3 | COC(=O)C1=C(C)NC(C)=C(C(=O)OC)C1c1ccccc1[N+](=O)[O-] [nifedipine] | – | – | – | – | – | – | – | – | – | – | – | – | – | delivery occurring post-mifepristone administration [8]: ≤ 25 h
4 | CC#C[C@]1(O)CC[C@H]2[C@@H]3CCC4=CC(=O)CCC4=C3[C@@H](c3ccc(N(C)C)cc3)C[C@@]21C [mifepristone] | – | – | – | – | – | – | – | – | – | – | – | – | – | lowest dose required for 100% PTB rates (CD-1 pregnant mice): 30 µg
